SMILES strings stand for the structures.

The target of this test is AMPK. Put plainly: AMPK activation, enzyme-linked immunosorbent assay. Format: biochemical. Particulars: Table 2, ELISA. As to the method: Compounds 1-54 were assayed for their ability to activate AMPK using an enzyme-linked immunosorbent assay.
Compounds 55-62 of Table 1 were assayed for their ability to activate AMPK using an enzyme-linked immunosorbent assay.
Compounds 63-66 of Table 1 were assayed for their ability to activate AMPK using an enzyme-linked immunosorbent assay.
Compounds 67-71 of Table 1 were assayed for their ability to activate AMPK using an enzyme-linked immunosorbent assay.
Compound 72 of Table 1 was assayed for its ability to activate AMPK using an enzyme-linked immunosorbent assay.
As a reminder, the EC50 is the concentration at which the effect is half-maximal. Low readings indicate a more potent agent, high ones a less potent agent. In the case of `N#Cc1ccc(CN2CCC(NC(=O)c3ccc4[nH]c5c(c4c3)CN(C(=O)OCc3ccccc3)CC5)CC2)cc1` [Compound 1, benzyl 8-(1-(4-cyanobenzyl)piperidin-4-ylcarbamoyl)-3,4-dihydro-1H-pyrido[4,3-b]indole-2(5H)-carboxylate], the EC50 is 1000 to 5000 nM.
As for `O=C(NC1CCN(Cc2ccccc2)CC1)c1ccc2[nH]c3c(c2c1)CN(C(=O)OCc1ccccc1)CC3` [Compound 2, benzyl 8-(1-(4-benzyl)piperidin-4-ylcarbamoyl)-3,4-dihydro-1H-pyrido[4,3-b]indole-2(5H)-carboxylate], the figure is 10000 to 50000 nM.
Under `CC(C)(C)OC(=O)N1CCC(NC(=O)c2ccc3[nH]c4c(c3c2)CN(C(=O)OCc2ccccc2)CC4)CC1` [Compound 3, benzyl 8-(1-(tert-butoxy-carbonyl)piperidin-4-ylcarbamoyl)-3,4-dihydro-1H-pyrido[4,3-b]indole-2(5H)-carboxylate] stands 10000 to 50000 nM; under `N#Cc1ccc(CN2CCC(NC(=O)c3ccc4[nH]c5c(c4c3)CN(Cc3ccccc3)CC5)CC2)cc1` [Compound 4, 2-benzyl-N-(1-(4-cyano-benzyl)piperidin-4-yl)-2,3,4,5-tetrahydro-1H-pyrido[4,3-b]indole-8-carboxamide], 1000 to 5000 nM; under `O=C(NC1CCN(Cc2ccc(C(F)(F)F)cc2)CC1)c1ccc2[nH]c3c(c2c1)CN(Cc1ccccc1)CC3` [Compound 5, 2-benzyl-N-(1-(4-trifluoromethylbenzyl)piperidin-4-yl)-2,3,4,5-tetrahydro-1H-pyrido [4,3-b]indole-8-carboxamide], 1000 to 5000 nM.
As for `CC(C)(C)OC(=O)N1CCC(NC(=O)c2ccc3[nH]c4c(c3c2)CN(Cc2ccc(C(F)(F)F)cc2)CC4)CC1` [Compound 6, tert-butyl 4-(2-(4-(trifluoromethyl)benzyl)-2,3,4,5-tetrahydro-1H-pyrido[4,3-b]indole-8-carboxamido)piperidine-1-carboxylate], the figure is 500 to 1000 nM; as for `O=C(NC1CCN(Cc2ccncc2)CC1)c1ccc2[nH]c3c(c2c1)CN(Cc1ccccc1)CC3` [Compound 7, 2-benzyl-N-(1-(pyridin-4-ylmethyl)piperidin-4-yl)-2,3,4,5-tetrahydro-1H-pyrido[4,3-b]indole-8-carboxamide], 5000 to 10000 nM.
For `O=C(NC1CCN(Cc2cccnc2)CC1)c1ccc2[nH]c3c(c2c1)CN(Cc1ccc(F)cc1)CC3` [Compound 8, 2-(4-fluorobenzyl)-N-(1-(pyridin-3-ylmethyl)piperidin-4-yl)-2,3,4,5-tetrahydro-1H-pyrido [4,3-b]indole-8-carboxamide], the EC50 fell in the range of 5000 to 10000 nM.
Under `N#Cc1ccc(CN2CCC(NC(=O)c3ccc4[nH]c5c(c4c3)CN(Cc3ccc(F)cc3)CC5)CC2)cc1` [Compound 9, N-(1-(4-cyanobenzyl)piperidin-4-yl)-2-(4-fluorobenzyl)-2,3,4,5-tetrahydro-1H-pyrido [4,3-b]indole-8-carboxamide] stands below 500 nM; under `O=C(NC1CCN(Cc2ccc(C(F)(F)F)cc2)CC1)c1ccc2[nH]c3c(c2c1)CN(Cc1ccc(F)cc1)CC3` [Compound 10, N-(1-(4-trifluoromethyl-benzyl)piperidin-4-yl)-2-(4-fluorobenzyl)-2,3,4,5-tetrahydro-1H-pyrido[4,3-b]indole-8-carboxamide], 500 to 1000 nM; under `O=C(NC1CCN(Cc2cccnc2)CC1)c1ccc2[nH]c3c(c2c1)CN(Cc1ccc(C(F)(F)F)cc1)CC3` [Compound 11, N-(1-(pyridin-3-ylmethyl)piperidin-4-yl)-2-(4-(trifluoromethyl)benzyl)-2,3,4,5-tetrahydro-1H-pyrido[4,3-b]indole-8-carboxamide], below 500 nM.
As for `N#Cc1ccc(CN2CCC(NC(=O)c3ccc4[nH]c5c(c4c3)CN(Cc3ccc(C(F)(F)F)cc3)CC5)CC2)cc1` [Compound 12, N-(1-(4-cyanobenzyl)piperidin-4-yl)-2-(4-(trifluoromethyl)benzyl)-2,3,4,5-tetrahydro-1H-pyrido[4,3-b]indole-8-carboxamide], the figure is below 500 nM; as for `O=C(NC1CCN(Cc2ccc(C(F)(F)F)cc2)CC1)c1ccc2[nH]c3c(c2c1)CN(Cc1ccc(C(F)(F)F)cc1)CC3` [Compound 13, N-(1-(4-trifluoromethyl-benzyl)piperidin-4-yl)-2-(4-(trifluoromethyl)benzyl)-2,3,4,5-tetrahydro-1H-pyrido[4,3-b]indole-8-carboxamide], below 500 nM.
`O=C(NC1CCN(CCc2ccccc2)CC1)c1ccc2[nH]c3c(c2c1)CN(Cc1ccc(C(F)(F)F)cc1)CC3` [Compound 14, N-(1-phenethyl-piperidin-4-yl)-2-(4-(trifluoromethyl)benzyl)-2,3,4,5-tetrahydro-1H-pyrido[4,3-b]indole-8-carboxamide] gave an EC50 below 500 nM.
Under `O=C(NC1CCN(c2ccc(F)cc2)CC1)c1ccc2[nH]c3c(c2c1)CN(Cc1ccc(C(F)(F)F)cc1)CC3` [Compound 15, N-(1-(4-fluorophenyl)piperidin-4-yl)-2-(4-(trifluoromethyl)benzyl)-2,3,4,5-tetrahydro-1H-pyrido[4,3-b]indole-8-carboxamide] stands below 500 nM.
As for `Cn1c2c(c3cc(C(=O)NC4CCN(Cc5ccc(C#N)cc5)CC4)ccc31)CN(Cc1ccc(C(F)(F)F)cc1)CC2` [Compound 16, N-(1-(4-cyanobenzyl)piperidin-4-yl)-5-methyl-2-(4-(trifluoromethyl)benzyl)-2,3,4,5-tetrahydro-1H-pyrido[4,3-b]indole-8-carboxamide], the figure is below 500 nM; as for `Cn1c2c(c3cc(C(=O)NC4CCN(Cc5ccc(C(F)(F)F)cc5)CC4)ccc31)CN(Cc1ccc(C(F)(F)F)cc1)CC2` [Compound 17, N-(1-(4-trifluoromethyl-benzyl)piperidin-4-yl)-5-methyl-2-(4-(trifluoro-methyl)benzyl)-2,3,4,5-tetrahydro-1H-pyrido [4,3-b]indole-8-carboxamide], 500 to 1000 nM; as for `Cn1c2c(c3cc(C(=O)NC4CCN(Cc5cccnc5)CC4)ccc31)CN(Cc1ccc(C(F)(F)F)cc1)CC2` [Compound 18, 5-methyl-N-(1-(pyridin-3-ylmethyl)piperidin-4-yl)-2-(4-(trifluoromethyl)benzyl)-2,3,4,5-tetrahydro-1H-pyrido[4,3-b]indole-8-carboxamide], 1000 to 5000 nM.
`O=C(NC1CCN(Cc2ccccc2)CC1)c1ccc2[nH]c3c(c2c1)CN(S(=O)(=O)c1ccc(C(F)(F)F)cc1)CC3` [Compound 19, N-(1-benzylpiperidin-4-yl)-2-(4-(trifluoromethyl)phenylsulfonyl)-2,3,4,5-tetrahydro-1H-pyrido [4,3-b]indole-8-carboxamide] returned an EC50 above 100000 nM.
In the case of `CC(=O)n1c2c(c3cc(C(=O)NC4CCN(Cc5cccnc5)CC4)ccc31)CN(Cc1ccc(C(F)(F)F)cc1)CC2` [Compound 20, 5-acetyl-N-(1-(pyridin-3-ylmethyl)piperidin-4-yl)-2-(4-(trifluoromethyl)benzyl)-2,3,4,5-tetrahydro-1H-pyrido[4,3-b]indole-8-carboxamide], the EC50 was in the range of 1000 to 5000 nM.
The compound `N#Cc1ccc(S(=O)(=O)N2CCC(NC(=O)c3ccc4[nH]c5c(c4c3)CN(Cc3ccc(C(F)(F)F)cc3)CC5)CC2)cc1` [Compound 21, N-(1-(4-cyanophenyl-sulfonyl)piperidin-4-yl)-2-(4-(trifluoromethyl)benzyl)-2,3,4,5-tetrahydro-1H-pyrido[4,3-b]indole-8-carboxamide] registered an EC50 of 500 to 1000 nM.
For `O=C(NC1CCN(S(=O)(=O)c2cccnc2)CC1)c1ccc2[nH]c3c(c2c1)CN(Cc1ccc(C(F)(F)F)cc1)CC3` [Compound 22], the EC50 was 500 to 1000 nM.
Compound `O=C(NC1CCN(S(=O)(=O)c2ccc(C(F)(F)F)cc2)CC1)c1ccc2[nH]c3c(c2c1)CN(Cc1ccc(C(F)(F)F)cc1)CC3` [Compound 23, 2-(4-(trifluoromethyl)benzyl)-N-(1-(4-(trifluoro-methyl)phenylsulfonyl)piperidin-4-yl)-2,3,4,5-tetrahydro-1H-pyrido[4,3-b]indole-8-carboxamide] registered an EC50 of 1000 to 5000 nM.
Consider `N#Cc1ccc(CN2CCC(NC(=O)c3ccc4[nH]c5c(c4c3)CN(S(=O)(=O)c3ccc(C(F)(F)F)cc3)CC5)CC2)cc1` [Compound 24, N-(1-(4-cyanobenzyl)piperidin-4-yl)-2-(4-(trifluoromethyl)phenyl-sulfonyl)-2,3,4,5-tetrahydro-1H-pyrido[4,3-b]indole-8-carboxamide], for which the EC50 lay within 1000 to 5000 nM.
For `N#Cc1ccc(CN2CCC(NC(=O)c3ccc4[nH]c5c(c4c3)CN(S(=O)(=O)c3ccc(C#N)cc3)CC5)CC2)cc1` [Compound 25, N-(1-(4-cyanobenzyl)piperidin-4-yl)-2-(4-cyanophenylsulfonyl)-2,3,4,5-tetrahydro-1H-pyrido[4,3-b]indole-8-carboxamide], the EC50 fell in the range of 10000 to 50000 nM.
`N#Cc1ccc(CN2CCC(NC(=O)c3ccc4[nH]c5c(c4c3)CN(S(=O)(=O)c3cccnc3)CC5)CC2)cc1` [Compound 26, N-(1-(4-cyanobenzyl)piperidin-4-yl)-2-(pyridin-3-ylsulfonyl)-2,3,4,5-tetrahydro-1H-pyrido [4,3-b]indole-8-carboxamide] returned an EC50 of 10000 to 50000 nM.
Under `N#Cc1ccc(NC(=O)N2CCC(NC(=O)c3ccc4[nH]c5c(c4c3)CN(Cc3ccc(C(F)(F)F)cc3)CC5)CC2)cc1` [Compound 27, N-(1-(4-cyanophenyl-carbamoyl)piperidin-4-yl)-2-(4-(trifluoro-methyl)benzyl)-2,3,4,5-tetrahydro-1H-pyrido [4,3-b]indole-8-carboxamide] stands 1000 to 5000 nM.
Under `O=C(NC1CCN(S(=O)(=O)c2ccc(F)cc2)CC1)c1ccc2[nH]c3c(c2c1)CN(Cc1ccc(C(F)(F)F)cc1)CC3` [Compound 28, N-(1-(4-fluorophenyl-sulfonyl)piperidin-4-yl)-2-(4-(trifluoromethyl)benzyl)-2,3,4,5-tetrahydro-1H-pyrido[4,3-b]indole-8-carboxamide] stands 1000 to 5000 nM.
